Results on two compounds are retold here after patent publication US8765720B2, “Combination therapy for the treatment of multiple myeloma” (Cephalon, Inc., priority 2009, dated 2014).

In one data set the test system is CD138-negative MM cells. The note with it: single agent; cited from earlier work.
Another data set in a line: in vitro. The settings on record: human. From the text: The human myeloma cell line RPMI8226 was obtained from American Type Culture Collection (Rockville, Md.). The MM1S myeloma cell line was provided by Dr. Steven Rosen (Northwestern University, Chicago, Ill.). Normal peripheral blood mononuclear cells (PBMCs) were isolated by Histopaque® density gradient centrifugation, according to the manufacturer's protocol (Sigma-Aldrich, St. Louis, Mo.). Myeloma cell lines and PBMCs were maintained in RPMI 1640 (Omega Scientific, Tarzana, Calif.) supplemented with 10% fetal bovine serum, 2 mM L-glutamine, 100 IU/mL penicillin, 100 μg/mL streptomycin, and essential amino acids in an atmosphere of 5% carbon dioxide (CO2) at 37° C.
Cells were seeded at 10^5 cells/100 μL/well in 96-well plates and incubated for 24 hours. RPMI8226 and MM1S cells were cultured in the presence of vehicle, COMPOUND 1, bortezomib, melphalan, COMPOUND 1+bortezomib, or COMPOUND 1+melphalan for 48 hours. After the incubation period, cell viability was quantified using the CellTiter 96® AQueous Non-Radioactive Cell Proliferation Assay (Promega, Madison, Wis.). Each well was treated with MTS (3-(4,5-dimethylthiazol-2-yl)-5-(3-carboxymethoxyphenyl)-2-(4-sulfophenyl)-2H-tetrazolium, inner salt) for 1 to 4 hours, after which absorbance was recorded at 490 nm. The quantity of formazan product as measured by absorbance at 490 nm is directly proportional to the number of living cells in culture.
In order for therapy with two or more PIs to be feasible in vivo, the combination must spare non-neoplastic cells. […] A healthy donor's PBMCs were cultured for 48 hours in the presence of COMPOUND 1 alone, bortezomib alone, or both agents together, and cell viability was quantified by MTS assay.

For another data set, the system named is MM1S cells. Description: Cell viability assay (MTS assay), MM1S cells. It counts as cell-based, human. The note with it: Homo sapiens, MM1.S, single-agent bortezomib 0.5 nM, 48 hours, read-out: inhibition of cell viability. The method, then:
In vitro synergy between COMPOUND 1 and bortezomib or melphalan was assessed using the median effect method of Chou and Talalay (30). Combination indices (CIs) were calculated separately for each combination. […] CIs between 0.9 and 1.1 were considered to indicate additive drug effects (31).
In general terms: Tetrazolium assays rely on reduction of a dye to a coloured formazan, in cell work by metabolically active cells.

Another data set concerns LAGκ-1A tumor. Kind of data set: Intramuscular LAGκ-1A tumor xenograft model (serum hIgG, tumor volume). The note with it: alone or together. The method, then: (§1) Six- to 8-week-old male severe combined immunodeficient (SCID) mice were obtained from the Jackson Laboratory (Bar Harbor, Me.) and maintained in a specific pathogen-free area in our animal resources facility. All animal studies were conducted according to protocols approved by the Institutional Animal Care and Use Committee. Animals were anesthetized with ketamine, xylazine, and isoflurane prior to surgery and were euthanized when tumors reached 2 cm in diameter.
(§2) Biopsy tissue was surgically implanted in the hind limbs of anesthetized SCID mice and passaged through succeeding generations (32).
(§3) Myeloma tumors (LAGκ-1A or LAGκ-1B) were excised from an anesthetized donor mouse, sectioned into 20 to 40 mm^3 pieces, and surgically implanted into the left superficial gluteal muscle of anesthetized naive SCID mice. Recipient mice received weekly injections of anti-asialo GM1 rabbit serum (Wako Bioproducts, Richmond, Va.) to further suppress immune activity. Mice were blindly assigned to one of the experimental groups, and treatment was initiated 7 to 21 days after tumor implantation. COMPOUND 1 was administered via oral gavage daily (0.5-5.0 mg/kg) or twice weekly (5-10 mg/kg). COMPOUND 1 was also administered twice weekly (W, F) via either IV injection (0.5-3.0 mg/kg) or oral gavage (10 mg/kg), as specified. Melphalan (1 mg/kg) was provided via weekly intraperitoneal (IP) injections (W). Bortezomib (0.5 mg/kg) was dispensed twice weekly (T, Th) via IV injection. Control treatment consisted of COMPOUND 1 diluent (3.2 mL 5% mannitol and 800 μL propylene glycol) alone.
Mice bearing MM tumors underwent weekly retro-orbital bleeds. Resulting samples were spun at 13,000 rpm for 30 minutes to isolate serum. The hIgG ELISA kit (Bethyl Laboratories, Montgomery, Tex.) was used according to the manufacturer's specifications. Absorbance at 450 nm with a reference wavelength of 550 nm was determined on a μQuant microplate spectrophotometer with KC Junior software (Bio-Tek Instruments, Winooski, Vt.). Data graphed are the mean±SEM with n=7-8 mice/group.
(§4) As a direct measurement of tumor growth, calipers were used to assess tumor volume weekly, and the formula for an ellipsoid volume was applied ( 4/3π×[width/2]^2×[length/2]).
(§5) Percent inhibition of tumor growth is represented as the tumor volume of the test drug group over the tumor volume of the untreated group (T/C). The optimal value is the minimal T/C ratio that reflects the maximal tumor growth inhibition achieved. The criterion for efficacy for the T/C ratio is ≦42%, according to National Cancer Institute (NCI) standard criteria (44).
(§6) Efficacy of drug therapy against tumors was standardized to the time (t) required for the untreated tumor to grow to a determined size based on the greatest difference in time to reach a tumor volume between the control and treatment group. This value can be represented as the growth delay (in days) between treated and control (tt−tc) (44).
(§7) Tumor growth and hIgG levels were analyzed in terms of treatment group means and standard error. Student's t-test was applied to determine the statistical significance of differences between treatment groups. Minimal significance level was P<0.05.

For a further data set, the system named is LAGκ-1B tumor. Description: Intramuscular LAGκ-1B tumor xenograft model (tumor volume). The method, then: as §1, §2
as §3, with “Melphalan (1 mg/kg) was provided via weekly intraperitoneal (IP) injections (W).” left out
as §4, §5, §6, §7

The test system of data set [1] is apoptosis-inducing factor (AIF). Description: Immunohistochemical analysis of AIF expression in LAGκ-1B tumors. It counts as in vivo, SCID mice. The note with it: COMPOUND 1 1 mg/kg, bortezomib 0.5 mg/kg, alone or both; tumors excised post-treatment. Here is the method:
LAGκ-1B tumors were fixed in 4% paraformaldehyde and cut into 5 μm sections. Briefly, sections were blocked with Tris-buffered saline with 0.05% Tween-20 (TBST) and 3% BSA for 1 hour at room temperature and then incubated overnight with a rabbit antibody against AIF (Sigma, St. Louis, Mo.). The sections were washed three times with TBST and treated with horse radish […] anti-rabbit antibody (KPL, Gaithersburg, Md.) diluted 1:500 in TBST at room temperature for 2 hours. The slides were washed three times in TBST and placed in 3-amino-9-ethylcarbazole (AEC) buffer for 5 minutes, and color was detected using an AEC kit (Dako, Glostrup, Denmark). Staining was documented using an Olympus BX51 microscope (Olympus Imaging America Inc., Center Valley, Pa.) and analyzed by Microsuite Biological Suite program (Olympus BX51).

Data set [2] concerns RPMI8226 cells. Kind of data set: Apoptotic assay by annexin V and propidium iodide staining. It counts as cell-based, human. The note with it: 2.5 nM for each drug, 30 hours. The method, then:
To quantify apoptosis in response to drug treatment, RPMI8226 cells (5×10^5 cells per well) were incubated with vehicle or PIs at 37° C. and 5% CO2 for 30 hours. As a positive control, cells were incubated with 250 ng/mL of actinomycin D for 24 or 48 hours. Cells were then washed twice with phosphate-buffered saline, resuspended in binding buffer (100 mM HEPES/NaOH, pH 7.5 containing 1.4 M NaCl and 25 mM CaCl2), and stained with fluorescein isothiocyanate (FITC)-conjugated annexin V and with the fluorescent dye propidium iodide (PrI), according to the manufacturer's protocol (BioVision, Mountain View, Calif.). For each drug treatment, 1×10^5 gated events were recorded. Cells negative for both PI and annexin V staining were considered live; annexin V-positive, PrI-negative cells were considered early apoptotic; annexin V-positive, PrI-positive cells were considered late apoptotic. Flow cytometric analyses were performed using a Beckman Coulter FC500 cytometer with Cytomics CXP software (Beckman Coulter, Fullerton, Calif.).

Data set [3] has as its system RPMI8226 cells. Kind of data set: Cell viability assay (MTS assay), RPMI8226 cells. It counts as cell-based, human. The settings on record: Homo sapiens, RPMI-8226, 48 h, read-out: decrease in cell viability. Here is the method: Combination indices (CIs) were calculated separately for each combination. […] CIs between 0.9 and 1.1 were considered to indicate additive drug effects (31).

Setting [4] is: bortezomib 0.5 mg/kg IV, COMPOUND 1 1 mg/kg IV, alone or together.

By viability is commonly meant a per cent measure of how many cells are alive, often set against a control. Turning to `CC(C)C[C@H](NC(=O)[C@H](Cc1ccccc1)NC(=O)c1cnccn1)B(O)O` [bortezomib, [(1R)-3-methyl-1-({(2S)-3-phenyl-2-[(pyrazin-2-ylcarbonyl)amino]propanoyl}amino)butyl]boronic acid, reference compound], in the data set with CD138-negative MM cells, the “effect on growth of CD138-negative MM cells” value is listed as “little effect”. Also, the viability at 48 h, 9 nM in the data set “in vitro” was around 85%. Also, the cytotoxicity at 0.0005 µM with MM1S cells is around 16%. The “serum hIgG levels and tumor volume vs vehicle” value in the data set with LAGκ-1A tumor (COMPOUND 1 1 mg/kg IV, bortezomib 0.5 mg/kg IV, twice weekly) was “only partially inhibited”. In the data set with LAGκ-1B tumor (setting [4]), the “days to tumor progression” value was determined as 35 days and the “survival longer than vehicle-treated mice” value amounted to 20%. Further, the “tumor growth vs vehicle” value in the data set with LAGκ-1B tumor (bortezomib 0.5 mg/kg IV, COMPOUND 1 1 mg/kg IV, alone or together, combination after 21 days P=0.0014) is on record as “only modestly suppresses”. In addition, the “drug-related / toxicity-related deaths” value in the data set on LAGκ-1B tumor (mouse, in vivo) is on record as “one death each”. Also, the “AIF expression vs vehicle-treated tumors” value in data set [1] was “elevated AIF expression”. In addition, the “proportion of cells in early apoptosis (PrI−/Annexin V+)” value in the data set with RPMI8226 cells [2] was 17.5 % of cells.

In the case of `N[C@@H](Cc1ccc(N(CCCl)CCCl)cc1)C(=O)O` [melphalan, 4-[bis(2-chloroethyl)amino]-L-phenylalanine, reference compound], the cytotoxicity at 40 µM in the data set on RPMI8226 cells [3] was around 30%. For the same compound, the “serum hIgG levels and tumor volume vs vehicle” value with LAGκ-1A tumor (melphalan 1 mg/kg IP weekly, COMPOUND 1 1 mg/kg IV twice weekly, 3 weeks) was “no effect”. The tumor volume result with LAGκ-1B tumor (melphalan 3 mg/kg IP weekly, COMPOUND 1 1 mg/kg IV twice weekly, alone or together, three weeks) is listed as “partially inhibited”.
